US20150087683A1, “TREATMENT METHOD FOR STEROID RESPONSIVE DERMATOSES” (GlaxoSmithKline Intellectual Property (No.2) Limited, priority 2012, published 2015)
Where “and” joins values, the source holds several entries; their conditions need not be identical. Identical values can stand only once.

Key:
MCF7 cells = assay: CMap analysis using psoriasis disease signature against mRNA expression profiles of compound-treated MCF7 cells (Assay #1); type: cell-based, human
Method: A general overview of the experimental protocol is indicated below.
The flask is incubated at 37 C for ˜2 minutes to dissociate the cells. • The dissociated cells are harvested with culture media, ˜10 ml/flask. • The harvested cell suspensions are pooled and re-suspended to ensure a homogenous suspension. • The suspension is divided into approximately 1e10̂6 cells per well. • The cells are spun down and re-suspended in fresh culture media to 1e10̂6 cells/2 mL media. • 2 ml of the adjusted cell suspension is dispensed into each well of 6-well plates. • The 6-well plates are incubated overnight at approximately 37 C: 5% CO2.
• An assay block, containing 3 ul 10 mM compound (small molecule)/well, is allowed to return to room temperature. • Culture media is warmed to 37 C. • 600 ul culture media is added to each well of assay block (containing 3 ul 10 mM compound). (=200× dilution) • Intermediate dilution is then 50 uM. • 500 ul of the intermediate dilution is transferred directly on to cells in 6-wells plated (in 2 ml) from previous day. (=5× dilution) • Cells then have 2.5 ml media on them. Final compound concentration is then 10 uM, final DMSO concentration is then 0.1%. • Treated cells are then returned to the incubator and treatment time is noted. • By way of example, if the final treatment concentration is to be something other than 10 uM, the stock should be adjusted first in DMSO so that the […] dilution still delivers 0.1% DMSO final.
• Fresh RLT buffer (QIAGEN)+2-Me is prepared. • After 6 hours of treatment, the 6-well plates are removed from incubator. • The test compound is aspirated from the cell monolayer. • 350 ul of RLT buffer is added per well. • Cells are scraped and the contents of each well is transferred to an appropriately labeled microfuge tube. • Freeze and store the samples at −80 C.
Frozen samples were shipped to Expression Analysis, Inc. Durham N.C. (EA) to generate RNA profiling data. To generate whole genome RNA expression profiles, samples were processed for RNA purification and hybridization to IllumanHT-12-V4 Expression BeadChips.
The significance of particular set of compound instance(s) of interest is estimated by permutation pvalue.

primary keratinocytes = assay: CMap analysis using psoriasis disease signature against mRNA expression profiles of compound-treated primary keratinocytes (Assay #2); type: cell-based, human; conditions: for Ks down / Ks up / Raw Score / Scale Score: Keratinocyte
Method: The general procedure of Assay #1 was repeated with Compound C with substitution of primary keratinocytes. Primary keratinocytes were purchased from Zen-Bio, Inc. and grown in Zen-Bio, Inc. human adult keratinocyte growth medium (cat# KM-2).
Following the general procedure of Assay #1 for Day 1, keratinocytes plated on T225 flasks were trypsinized and resuspended in 17.4 mL of KM-2 medium. The cells were then seeded in the 6-well plates with 0.5×10^6 cells per well in a total 4 mL KM-2 medium.
Following the general procedure of Assay #1 for Day 2, keratinocytes were treated with the compound at the final concentrations of 1 uM and 10 uM for 6 hours. KM-2 medium containing test compound is aspirated from the cell monolayer. 350 ul of RLT buffer is added per well, the contents in each well were scraped and transferred to an appropriately labeled microfuge tube. Samples were frozen and stored at −80 C.
The subsequent sample processing, RNA purification and hybridization to the chips for microarray experiments were conducted by Expression Analysis, Inc. Durham N.C. (EA).

plaques of psoriasis = assay: Clinical result: psoriasis plaques in a patient of cancer trial PCS113124; type: in vivo; conditions: human, patient 1200
From the text: Compound C was in human clinical trials for the treatment of cancer.

**Q.** `Cn1ncc(Cl)c1-c1cc(C(=O)N[C@H](CN)Cc2ccc(F)c(F)c2)oc1Cl` [Compound C, N-{(1S)-2-amino-1-[(3,4-difluorophenyl)methyl]ethyl}-5-chloro-4-(4-chloro-1-methyl-1H-pyrazol-5-yl)-2-furancarboxamide] was tested. Which “Enrichment Score” value (MCF7 cells; MCF7, 10 uM, 6 hours treatment) did it give?
**A.** Its value is −0.8835.

**Q.** And the “Mean CMap Score” value (MCF7 cells; MCF7, 10 uM, 6 hours treatment)?
**A.** The value was −0.1867.

**Q.** And the “CMap Score Distribution” value (MCF7 cells; MCF7, 10 uM, 6 hours treatment, individual instance scores)?
**A.** The value was “(−0.17 −0.17 and −0.21)”.

**Q.** What about the “gene expression changes versus gene expression changes observed in psoriasis” value (MCF7 cells; MCF7 cells) of the same compound?
**A.** Its value is “negatively correlated”.

**Q.** What about the Ks down (primary keratinocytes; 1 uM, Day 1) of the same compound?
**A.** The Ks down was 0.112.

**Q.** And the Ks up (primary keratinocytes; 1 uM, Day 1)?
**A.** The Ks up was −0.22.

**Q.** What about the “Raw Score” value (primary keratinocytes; 1 uM, Day 1) of the same compound?
**A.** Its value is −0.3324.

**Q.** What about the “Scale Score” value (primary keratinocytes; 1 uM, Day 1) of the same compound?
**A.** The value was −0.6723.

**Q.** What about the Ks down (primary keratinocytes; 1 uM, Day 2) of the same compound?
**A.** The Ks down was 0.172.

**Q.** What about the Ks up (primary keratinocytes; 1 uM, Day 2) of the same compound?
**A.** Its Ks up is −0.248.

**Q.** And the “Raw Score” value (primary keratinocytes; 1 uM, Day 2)?
**A.** The value was −0.4204.

**Q.** And the “Scale Score” value (primary keratinocytes; 1 uM, Day 2)?
**A.** The value was −0.8504.

**Q.** What about the Ks down (primary keratinocytes; 1 uM, Day 3) of the same compound?
**A.** The Ks down was 0.124.

**Q.** And the Ks up (primary keratinocytes; 1 uM, Day 3)?
**A.** Its Ks up is −0.139.

**Q.** What about the “Raw Score” value (primary keratinocytes; 1 uM, Day 3) of the same compound?
**A.** Its value is −0.2625.

**Q.** And the “Scale Score” value (primary keratinocytes; 1 uM, Day 3)?
**A.** The value was −0.5309.

**Q.** What about the Ks down (primary keratinocytes; 10 uM, Day 1) of the same compound?
**A.** The Ks down was 0.112.

**Q.** And the Ks up (primary keratinocytes; 10 uM, Day 1)?
**A.** Its Ks up is −0.213.

**Q.** And the “Raw Score” value (primary keratinocytes; 10 uM, Day 1)?
**A.** The value was −0.3251.

**Q.** What about the “Scale Score” value (primary keratinocytes; 10 uM, Day 1) of the same compound?
**A.** The value was −0.6576.

**Q.** And the Ks down (primary keratinocytes; 10 uM, Day 2)?
**A.** The Ks down was 0.115.

**Q.** What about the Ks up (primary keratinocytes; 10 uM, Day 2) of the same compound?
**A.** Its Ks up is −0.296.

**Q.** What about the “Raw Score” value (primary keratinocytes; 10 uM, Day 2) of the same compound?
**A.** The value was −0.4104.

**Q.** And the “Scale Score” value (primary keratinocytes; 10 uM, Day 2)?
**A.** The value was −0.8302.

**Q.** What about the Ks down (primary keratinocytes; 10 uM, Day 3) of the same compound?
**A.** The Ks down was 0.114.

**Q.** And the Ks up (primary keratinocytes; 10 uM, Day 3)?
**A.** The Ks up was −0.241.

**Q.** What about the “Raw Score” value (primary keratinocytes; 10 uM, Day 3) of the same compound?
**A.** The value was −0.3551.

**Q.** And the “Scale Score” value (primary keratinocytes; 10 uM, Day 3)?
**A.** The value was −0.7182.

**Q.** And the “gene expression changes versus gene expression changes observed in psoriasis” value (primary keratinocytes; primary keratinocytes)?
**A.** Its value is “negatively correlated”.

**Q.** And the “course of mild plaques of psoriasis during treatment” value (plaques of psoriasis)?
**A.** The value was “generally got better and even disappeared at times”.
